Assay results reported in ChEMBL document CHEMBL1201862, “PubChem BioAssay data set” (2004).
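In this assay, cells in 96-well plates receive the compound at five concentrations for 48 hours. Endpoints are linearly interpolated between the surrounding concentrations. Here, GI50 denotes the concentration required for 50% inhibition of growth.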 Calls of active or inactive are those of the source. Cut-off read from the data, not from the text of the source: active = GI50 up to about 1.1 µM and inactive = higher.

How the values were obtained:
Test in all cases: NCI-60 cell line screen, 48 h
MOLT-4 = system: MOLT-4
A549 = system: A549
UACC-257 = system: UACC-257
TK-10 = system: TK-10
ACHN = system: ACHN
NCI/ADR-RES = system: NCI/ADR-RES
SR = system: SR
MCF7 = system: MCF7
RPMI-8226 = system: RPMI-8226
HCC 2998 = system: HCC 2998
CAKI-1 = system: CAKI-1
OVCAR-8 = system: OVCAR-8
SF-268 = system: SF-268
UO-31 = system: UO-31
Malme-3M = system: Malme-3M
NCI-H226 = system: NCI-H226
OVCAR-4 = system: OVCAR-4
NCI-H460 = system: NCI-H460
SK-MEL-2 = system: SK-MEL-2
Hs-578T = system: Hs-578T

Row | Compound | GI50 (MOLT-4) | GI50 (A549) | GI50 (UACC-257) | GI50 (TK-10) | GI50 (ACHN) | GI50 (NCI/ADR-RES) | GI50 (SR) | GI50 (MCF7) | GI50 (RPMI-8226) | GI50 (HCC 2998) | GI50 (CAKI-1) | GI50 (OVCAR-8) | GI50 (SF-268) | GI50 (UO-31) | GI50 (Malme-3M) | GI50 (NCI-H226) | GI50 (OVCAR-4) | GI50 (NCI-H460) | GI50 (SK-MEL-2) | GI50 (Hs-578T)
1 | CCC(C)N1CN(c2ccccc2)C2(CCN(CCCSc3ccc(F)cc3)CC2)C1=O (stereo unspecified) | 3 µM (inactive) | 3.94 µM (inactive) | 2.74 µM (inactive) | 3.27 µM (inactive) | 3.15 µM (inactive) | 3.05 µM (inactive) | 3.32 µM (inactive) | 3.09 µM (inactive) | 2.31 µM (inactive) | 2.04 µM (inactive) | 3.45 µM (inactive) | 6.17 µM (inactive) | 6.75 µM (inactive) | 2.42 µM (inactive) | 4.48 µM (inactive) | 4.34 µM (inactive) |  |  |  | 
2 | CCN1CCN=C2c3cc(OC)ccc3Nc3c([N+](=O)[O-])ccc1c32 | 0.279 µM (active) | 0.667 µM (active) | 1.83 µM (inactive) | 3.75 µM (inactive) |  |  | 0.244 µM (active) | 1.28 µM (inactive) | 0.552 µM (active) | 0.78 µM (active) | 0.485 µM (active) | 0.621 µM (active) | 0.443 µM (active) |  | 0.841 µM (active) |  | 1.29 µM (inactive) |  |  | 
3 | CCOC(=O)c1nc2ccccc2nc1Oc1ccc(C#N)cc1 | > 100 µM (inactive) | > 100 µM (inactive) | > 100 µM (inactive) | > 100 µM (inactive) | > 100 µM (inactive) | > 100 µM (inactive) |  | > 100 µM (inactive) | > 100 µM (inactive) |  |  | > 100 µM (inactive) | > 100 µM (inactive) | > 100 µM (inactive) | > 100 µM (inactive) | > 100 µM (inactive) | > 100 µM (inactive) | > 100 µM (inactive) | > 100 µM (inactive) | > 100 µM (inactive)
4 | CC1N[B@@-](C)(c2ccc(C(F)(F)F)cc2)OC1c1ccccc1 (stereo partly specified) | 29.9 µM (inactive) | > 100 µM (inactive) | > 100 µM (inactive) | > 100 µM (inactive) | 36.9 µM (inactive) | > 100 µM (inactive) | 31.3 µM (inactive) | 59.7 µM (inactive) | 34.7 µM (inactive) | > 100 µM (inactive) |  | > 100 µM (inactive) | > 100 µM (inactive) | 34.7 µM (inactive) | 86.3 µM (inactive) | > 100 µM (inactive) | > 100 µM (inactive) | > 100 µM (inactive) |  | 
5 | CCCNc1c(Cl)cc(Cl)c2[nH]c3ccccc3c(=O)c12 | 32.5 µM (inactive) | 35.1 µM (inactive) | 48.3 µM (inactive) | 51.3 µM (inactive) | 24 µM (inactive) | > 100 µM (inactive) | 58.3 µM (inactive) | 28.4 µM (inactive) | 30.8 µM (inactive) | 41.3 µM (inactive) | 62.5 µM (inactive) | 40.3 µM (inactive) |  | 32.1 µM (inactive) | 43.3 µM (inactive) | 38.2 µM (inactive) | > 100 µM (inactive) |  | 39.9 µM (inactive) | 
6 | C=C1CC2C(=O)N(c3ccccc3)C(=O)C2CC1n1[nH]c(=O)n(Cc2ccccc2)c1=O (stereo unspecified) | > 100 µM (inactive) | > 100 µM (inactive) | > 100 µM (inactive) | > 100 µM (inactive) | > 100 µM (inactive) |  | > 100 µM (inactive) |  | > 100 µM (inactive) | > 100 µM (inactive) | > 100 µM (inactive) | > 100 µM (inactive) | > 100 µM (inactive) | > 100 µM (inactive) | > 100 µM (inactive) | > 100 µM (inactive) | > 100 µM (inactive) | > 100 µM (inactive) | > 100 µM (inactive) | 
7 | O=c1[nH]c2c(C(F)(F)F)c(Cl)c(-c3ccccc3)nc2o1 | 13.7 µM (inactive) | 19.8 µM (inactive) | 14.1 µM (inactive) | 31.2 µM (inactive) | 65.5 µM (inactive) | 16.6 µM (inactive) |  | 45.6 µM (inactive) |  | 25.5 µM (inactive) | 34.4 µM (inactive) | 31.3 µM (inactive) | 54.7 µM (inactive) | 12.5 µM (inactive) |  | 30.3 µM (inactive) | 19.6 µM (inactive) | 23.9 µM (inactive) | 18.5 µM (inactive) | 55.6 µM (inactive)
8 | COc1ccc(/C=C2\CCC(C)C3=C2N=c2s/c(=C/c4cccc(Br)c4)c(=O)n2C3c2ccc(OC)c(OC)c2)cc1OC (stereo unspecified) | > 100 µM (inactive) | > 100 µM (inactive) | > 100 µM (inactive) | > 100 µM (inactive) | > 100 µM (inactive) |  | > 100 µM (inactive) | > 100 µM (inactive) | > 100 µM (inactive) |  | > 100 µM (inactive) | > 100 µM (inactive) | > 100 µM (inactive) |  |  |  | > 100 µM (inactive) |  | > 100 µM (inactive) | > 100 µM (inactive)
9 | COC(=O)C(C(=O)C(=O)Nc1ccccc1C)c1nc2ccc([N+](=O)[O-])cc2nc1O (stereo unspecified) | > 100 µM (inactive) | > 100 µM (inactive) | > 100 µM (inactive) | > 100 µM (inactive) | > 100 µM (inactive) |  | > 100 µM (inactive) |  | > 100 µM (inactive) | > 100 µM (inactive) | > 100 µM (inactive) | > 100 µM (inactive) | > 100 µM (inactive) | > 100 µM (inactive) | > 100 µM (inactive) | > 100 µM (inactive) | > 100 µM (inactive) | > 100 µM (inactive) | > 100 µM (inactive) | 
10 | CC(=O)O[C@@H]1O[Si](C(C)(C)C)(C(C)(C)C)[C@H](C)[C@H]1C | 20.8 µM (inactive) | 41 µM (inactive) | > 100 µM (inactive) | > 100 µM (inactive) | > 100 µM (inactive) | > 100 µM (inactive) | > 100 µM (inactive) | 19.1 µM (inactive) | 45.1 µM (inactive) | 92.7 µM (inactive) | > 100 µM (inactive) | > 100 µM (inactive) |  | > 100 µM (inactive) | 7.91 µM (inactive) | > 100 µM (inactive) | > 100 µM (inactive) |  | > 100 µM (inactive) | 
11 | Cc1c(/C=N\NC(=S)N(C)CCN(C)C(=S)N/N=C\c2c(C)n(C)n(-c3ccccc3)c2=O)c(=O)n(-c2ccccc2)n1C | > 100 µM (inactive) | > 100 µM (inactive) | > 100 µM (inactive) | > 100 µM (inactive) | > 100 µM (inactive) | > 100 µM (inactive) | 35.3 µM (inactive) |  |  | > 100 µM (inactive) | > 100 µM (inactive) |  | > 100 µM (inactive) | > 100 µM (inactive) | 55.7 µM (inactive) | > 100 µM (inactive) | > 100 µM (inactive) | > 100 µM (inactive) | > 100 µM (inactive) | > 100 µM (inactive)
12 | CC(O)c1nc(C#N)c(N)o1 (stereo unspecified) | > 100 µM (inactive) | > 100 µM (inactive) | > 100 µM (inactive) | > 100 µM (inactive) | > 100 µM (inactive) | > 100 µM (inactive) |  | > 100 µM (inactive) | > 100 µM (inactive) |  | > 100 µM (inactive) | > 100 µM (inactive) | > 100 µM (inactive) | > 100 µM (inactive) | > 100 µM (inactive) | > 100 µM (inactive) |  |  | > 100 µM (inactive) | > 100 µM (inactive)
13 | COC(=O)CC[C@@H](NC(=O)C(C)NC(=O)COC1C(O)C(COC(=O)CCCCCCCCCCNC(=O)c2ccc([N+](=O)[O-])c3[nH]c4cc(Br)ccc4c(=O)c23)OC(OCc2ccccc2)C1NC(C)=O)C(N)=O (stereo partly specified) | 70.3 µM (inactive) | > 100 µM (inactive) | > 100 µM (inactive) | > 100 µM (inactive) | > 100 µM (inactive) |  | 42.6 µM (inactive) |  | 39.7 µM (inactive) | 22.5 µM (inactive) | > 100 µM (inactive) | > 100 µM (inactive) | 57.4 µM (inactive) | > 100 µM (inactive) | > 100 µM (inactive) | 25.1 µM (inactive) | > 100 µM (inactive) | 57.3 µM (inactive) | 95.1 µM (inactive) | 
14 | O=c1[nH]c2ccccc2nc1CBr | 1.87 µM (inactive) | 14.4 µM (inactive) | 13.2 µM (inactive) | 13.8 µM (inactive) | 12.3 µM (inactive) | 19.7 µM (inactive) | 0.415 µM (active) |  | 2.06 µM (inactive) | 20.6 µM (inactive) | 7.33 µM (inactive) | 13.8 µM (inactive) | 11.1 µM (inactive) | 3.87 µM (inactive) | 2.74 µM (inactive) | 15.8 µM (inactive) | 4.62 µM (inactive) | 11.4 µM (inactive) | 8.24 µM (inactive) | 12.1 µM (inactive)
15 | CC(=O)[C@@H]1[C@@H](OC(=O)CCC(C)COC2OC(CO)C(O)C(O)C2O)C[C@H]2[C@@H]3CC=C4C[C@@H](OC5OC(CO)C(OC6OC(C)C(O)C(O)C6O)C(O)C5OC5OC(C)C(O)C(O)C5O)CC[C@]4(C)[C@H]3CC[C@]12C (stereo partly specified) | > 100 µM (inactive) | > 100 µM (inactive) | > 100 µM (inactive) | > 100 µM (inactive) | > 100 µM (inactive) |  | > 100 µM (inactive) | > 100 µM (inactive) | > 100 µM (inactive) | > 100 µM (inactive) | > 100 µM (inactive) | > 100 µM (inactive) | > 100 µM (inactive) | > 100 µM (inactive) | 52.5 µM (inactive) |  | > 100 µM (inactive) | > 100 µM (inactive) | > 100 µM (inactive) | 
16 | COc1cccc(C2c3cc4c(cc3OC(NNc3ccccc3)C2C)OCO4)c1OC (stereo unspecified) | 2.55 µM (inactive) | 3.58 µM (inactive) | 5.06 µM (inactive) | 2.61 µM (inactive) | 1.65 µM (inactive) |  | 1.06 µM (active) | 4.73 µM (inactive) | 2.92 µM (inactive) | 2.29 µM (inactive) | 2.5 µM (inactive) | 7.6 µM (inactive) | 23.1 µM (inactive) | 2.82 µM (inactive) | 12.2 µM (inactive) | 5.06 µM (inactive) |  | 3.26 µM (inactive) | 10.1 µM (inactive) | 6.35 µM (inactive)
